What all share (type): functional, cell-based
The test system of one assay is MCF7. Put plainly: Cytotoxicity against human MCF7 cells.
The subject of the next assay is MDA-MB-231. The assay can be described thus: Cytotoxicity against human MDA-MB-231 cells.
Another assay concerns LNCaP. The assay can be described thus: Cytotoxicity against human LNCAP cells.
For another assay, the system named is DU-145. The assay can be described thus: Cytotoxicity against human DU145 cells.
A further assay has as its system PC-3. The assay can be described thus: Cytotoxicity against human PC3 cells.
The test system of a further assay is MIA PaCa-2. The assay can be described thus: Cytotoxicity against human MIAPaCa2 cells.

The term pIC50 denotes the IC50 on a negative log10 scale, so that one unit is a factor of ten.

pIC50: −log10 of the molar value.

Regarding `c1ccc2c(-c3nsc(-c4c[nH]c5ccccc45)n3)c[nH]c2c1`, the pIC50 with MCF7 was 3.84; in the assay on MDA-MB-231, 3.15; in the assay with LNCaP, below 3.00; in the assay with DU-145, 3.60; with PC-3, below 3.00; in the assay with MIA PaCa-2, below 3.00.

Turning to `Cn1cc(-c2nsc(-c3cn(C)c4ccccc34)n2)c2ccccc21`, the pIC50 is 3.75 in the assay on MCF7; 3.63 in the assay on MDA-MB-231; 3.65 in the assay on LNCaP; 4.19 with DU-145; 4.03 in the assay on PC-3; 3.73 in the assay on MIA PaCa-2.

As to `Clc1ccc(Cn2cc(-c3nsc(-c4cn(Cc5ccc(Cl)cc5)c5ccccc45)n3)c3ccccc32)cc1`, the pIC50 in the assay with MCF7 is below 3.00; with MDA-MB-231, below 3.00; in the assay with LNCaP, 3.38; in the assay with DU-145, below 3.00; in the assay on PC-3, below 3.00; in the assay on MIA PaCa-2 it was 4.00.

In the case of `Brc1ccc2[nH]cc(-c3nsc(-c4c[nH]c5ccc(Br)cc45)n3)c2c1`, the pIC50 in the assay with MCF7 was 4.50; with MDA-MB-231 it was 4.00; in the assay on LNCaP, 3.80; with DU-145 it was 4.25; in the assay on PC-3 it was 3.79; in the assay with MIA PaCa-2, 3.91.

Regarding `Cn1cc(-c2nsc(-c3cn(C)c4ccc(Br)cc34)n2)c2cc(Br)ccc21`, the pIC50 in the assay with MCF7 was 4.20; in the assay on MDA-MB-231 it was below 3.00; in the assay on LNCaP, below 3.00; in the assay on DU-145, below 3.00; in the assay on PC-3 it was below 3.00; with MIA PaCa-2 it was below 3.00.

As for `COc1ccc2[nH]cc(-c3nsc(-c4c[nH]c5ccc(OC)cc45)n3)c2c1`, the pIC50 was 3.37 with MCF7; below 3.00 with MDA-MB-231; 3.53 in the assay with LNCaP; 3.69 with DU-145; 3.65 with PC-3; 4.34 in the assay with MIA PaCa-2.

Consider `COc1ccc2c(c1)c(-c1nsc(-c3cn(C)c4ccc(OC)cc34)n1)cn2C`, for which the pIC50 in the assay on MCF7 was 4.10; in the assay on MDA-MB-231 it was 4.02; in the assay with LNCaP it was 3.95; in the assay on DU-145, 3.86; in the assay with PC-3, 3.57; in the assay on MIA PaCa-2, 3.75.

Take `COc1ccc2c(c1)c(-c1nsc(-c3cn(Cc4ccc(Cl)cc4)c4ccc(OC)cc34)n1)cn2Cc1ccc(Cl)cc1`: the pIC50 was 4.49 in the assay on MCF7; 4.17 with MDA-MB-231; 4.84 in the assay on LNCaP; 3.43 in the assay on DU-145; 4.67 in the assay on PC-3; 4.67 with MIA PaCa-2.

With `O=[N+]([O-])c1ccc2[nH]cc(-c3nsc(-c4c[nH]c5ccc([N+](=O)[O-])cc45)n3)c2c1`, the pIC50 is 4.08 with MCF7; 4.01 with MDA-MB-231; 3.75 with LNCaP; 3.49 with DU-145; 3.17 in the assay with PC-3; 3.73 in the assay on MIA PaCa-2.

In the case of `Brc1ccc2c(-c3nsc(-c4c[nH]c5cc(Br)ccc45)n3)c[nH]c2c1`, the pIC50 in the assay on MCF7 is 4.41; with MDA-MB-231, 4.42; with LNCaP, 4.10; with DU-145, 4.52; in the assay on PC-3, 3.88; with MIA PaCa-2, 4.08.

As for `COc1ccc2c(-c3nsc(-c4c[nH]c5cc(OC)ccc45)n3)c[nH]c2c1`, the negative-log IC50 (pIC50) with MCF7 was 4.45; with MDA-MB-231, 4.35; with LNCaP, 4.45; in the assay with DU-145, 4.37; in the assay on PC-3 it was 4.12; in the assay on MIA PaCa-2, 4.02.

As to `c1ccc2[nH]c(-c3nsc(-c4cc5ccccc5[nH]4)n3)cc2c1`, the pIC50 in the assay on MCF7 was 3.79; in the assay on MDA-MB-231, below 3.00; with LNCaP it was 3.61; in the assay with DU-145, 3.34; with PC-3, 3.49; in the assay with MIA PaCa-2, 3.99.

Consider `Cn1c(-c2nsc(-c3cc4ccccc4n3C)n2)cc2ccccc21`, for which the pIC50 in the assay with MCF7 was 4.18; in the assay on MDA-MB-231 it was below 3.00; in the assay with LNCaP, 3.68; in the assay with DU-145, below 3.00; with PC-3 it was 3.36; in the assay with MIA PaCa-2, 3.58.

`c1ccc2c(Cc3nsc(Cc4c[nH]c5ccccc45)n3)c[nH]c2c1`: the pIC50 in the assay with MCF7 is 4.39; in the assay on MDA-MB-231 it was 4.19; in the assay with LNCaP, 4.36; in the assay with DU-145, 4.29; with PC-3, 4.35; with MIA PaCa-2, 4.50.
